{
  "source": "patent US6750256B1",
  "about": "“Use of aromatic aldehydes as insecticides” (Proguard, Inc., priority 1994, dated 2004)",
  "key": {"[1]": {"tested_on": "two-spotted spider mite, Tetranychus urticae", "experiment": "Spider mite treated petri dish contact bioassay", "assay_type": "in vivo", "details": "positive control, 10 ppm; 24 hours contact", "protocol": "Activity of cinnamic aldehyde and/or coniferyl aldehyde against two-spotted spider mite, Tetranychus urticae is determined as follows. In a double blind experiment, intersurfaces of petri dishes (60 mm diameter) were treated with 100 μl of a test formulation and allowed to air dry and used within the hour. Twenty adult spider mites were put in each dish and the percent of mortality of the spider mites after 24 hours in contact with the treated dishes Was determined."}, "[2]": {"tested_on": "rats", "details": "cited from earlier work"}, "[3]": {"tested_on": "human subjects", "details": "12% in petrolatum; 48 hour closed-patch test on human subjects; cited from earlier work"}, "[4]": {"details": "at 25° C.; cited from earlier work"}, "[5]": {"tested_on": "human subjects", "details": "20% in diethylphthalate; 100 human subjects; cited from earlier work"}, "[6]": {"tested_on": "thrips insects (Frankliniella occidentalis)", "experiment": "Residual activity on treated filter paper against thrips", "assay_type": "in vivo", "details": "rehydrated 24 and 72 hours after spraying, thrips exposed one hour", "protocol": "In the first experiment, two ml of two concentrations of CNMA (0.3 and 1%) were sprayed on filter paper (Whatman). As a negative control, two ml of water was also sprayed on filter paper. Twenty-four hours later, two ml of water were sprayed on treatment and control filter paper, which were then dried for 30 min. Approximately 30 thrips insects (Frankliniella occidentalis) were introduced onto the treated filter papers and the number of F. occidentalis were observed after one hour. Mean mortality was calculated for each treatment. After 72 hours, the treated filter papers were flipped over and only the negative control filter paper and the filter paper treated with 1% CNMA were sprayed with 2 ml of water and allowed to dry for 30 minutes. Approximately 30 thrips were introduced onto the two treated filter papers and after one hour the number of dead F. occidentalis were observed and the mean mortality calculated for each treatment. A similar assay was conducted using AHCNMA. Mean mortality was higher for rehydrated filter papers compared to non-rehydrated filter papers over time."}, "[7]": {"tested_on": "cat flea (Ctenocepalides felis)", "experiment": "Cat flea contact treatment on sprayed carpet plugs", "assay_type": "in vivo", "details": "72 hours", "protocol": "The treatment of cat flea (Ctenocepalides felis) with various formulations containing alpha hexyl cinnamaldehyde is tested as follows. In a double blind experiment, variable concentrations of the formulae were tested for activity against cat flea (Ctenocepalides felis). The initial experiments tested alpha hexyl cinnamaldehyde at concentrations of 5%, 10% and 20% in 6% Tween 80. As controls, a formula blank containing 6% Tween 80 and negative control with no formulae were tested. Fleas were put in direct contact with the formulae and mortality was assessed both visually and by probing at 72 hours after contact.\nApproximately […] of each formula concentration was sprayed on 0.279 square meter carpet section (DuPont) at 20 PSI. After allowing to air dry (20 minutes), four plugs each 14 cm in diameter were cut from each treated carpet section. One plug was used for each replicate for four total replications. For each treatment and replicate, 25 fleas were introduced on each plug. Plugs were then rolled and put in an escape proof, ventilated 2 liter container. After 72 hours mortality was assessed."}, "[8]": {"details": "cited from earlier work"}, "[9]": {"tested_on": "Adult human lice (Pediculus humanus)", "assay_type": "in vivo", "details": "2% in water, lice submerged 1, 4 or 10 minutes", "protocol": "Adult human lice (Pediculus humanus) were treated with α-butyl cinnamic aldehyde to determine its pediculicidal activity. […] For each of four replicates, 25 mixed sex lice were placed in a 9 dram plastic vial and covered with a screened plunger to keep the lice from floating to the surface. The vial containing the lice was dipped into a 100 ml beaker containing 2% α-butyl cinnamic aldehyde, which was dissolved in water or distilled water as a negative control. Lice were submerged in the 2% α-butyl cinnamic aldehyde for 1, 4 or 10 minutes. After this time, the test container was removed from the treatment, submerged in a 1000 mL beaker containing distilled water (32° C.) from a wash bottle. Subsequently, lice were allowed to recover in an incubator maintained at 31.7° C. in 60% RH (relative humidity) for 1 hour. Following the recovery period, lice were examined for their ability to move toward heat. For this observation, the lice were placed on a patch which was placed on a second patch that was on top of a slide warmer maintained at 37° C. Lice not dead or morbid (unable to move towards heat 1 hour after treatment; sickly, but not necessarily dying; may recover by 24 hours), will move to the lower patch. Lice again were examined for their ability to move towards 24 hours later. […]"}},
  "data": [
    {"smiles": "CNC(=O)Oc1cccc2ccccc12", "note": "[Sevin, reference compound]", "values": [
      {"measurement": "Percent Mortality (24 hours)", "setting": "[1]", "result": 100, "unit": "%"}
    ]},
    {"smiles": "CCCCCCC(C=O)=Cc1ccccc1", "note": "[HCA, 2-(phenylmethylene) octanal]", "values": [
      {"measurement": "oral LD50", "setting": "[2]", "result": 3100, "unit": "mg/kg"},
      {"measurement": "irritation", "setting": "[3]", "result": "no irritation"},
      {"measurement": "vapor pressure", "setting": "[4]", "result": "70×10^−5 mm Hg"},
      {"measurement": "reactions in repeated insult patch test", "setting": "[5]", "result": "no positive reactions"},
      {"measurement": "residual activity in words", "setting": "[6]", "result": "residual activity"},
      {"measurement": "Percent Mortality", "setting": "[7]; 5% wt/vol in 6% Tween 80", "result": 84, "unit": "%"},
      {"measurement": "Percent Mortality", "setting": "[7]; 10% wt/vol in 6% Tween 80", "result": 92, "unit": "%"},
      {"measurement": "Percent Mortality", "setting": "[7]; 20% wt/vol in 6% Tween 80", "result": 86, "unit": "%"},
      {"measurement": "flea mortality", "setting": "[7]; all treatments (5%, 10% and 20% in 6% Tween 80)", "result": "greater than 80%"},
      {"measurement": "dermal LD50", "setting": "[8]", "result": "greater than 3 g/kg"}
    ]},
    {"smiles": "CCN(CC)c1cccc(C)c1", "note": "[N,N-diethyl-m-toluamine, reference compound]", "values": [
      {"measurement": "vapor pressure", "setting": "[4]", "result": "167×10^−5 mm Hg"}
    ]},
    {"smiles": "CCCCC(C=O)=Cc1ccccc1", "note": "[α-butyl cinnamic aldehyde]", "values": [
      {"measurement": "mortality", "setting": "[9]; at 24 hours", "result": 98.6, "unit": "%"},
      {"measurement": "knockdown", "setting": "[9]; at the 1 hour time point", "result": 100, "unit": "%"}
    ]}
  ]
}
